Data reported in patent US9134300B2, “Method for screening a drug in retinal tissue” (Research Foundation of the City University of New York, priority 2011, dated 2015).

Tested on: microtubules
Assay: Time-lapse second-harmonic generation imaging of retinal nerve fibers following treatment with nocodazole
Set-up: species or system rat
Conditions: retinal nerve fiber layer of retinal flat-mount; perfusion with medium containing nocodazole and 0.4% DMSO; treatment period 90 minutes
Procedure: Rat retinal flat-mounts were prepared from euthanized rats. The eyes were enucleated. A circumferential incision was made around the limbus and the cornea, lens, and vitreous humor were removed. Several radial cuts were made in the eye cup. The retina was isolated from the retinal pigment epithelium and the sclera and transferred to buffered Ames' medium (Sigma-Aldrich), which was bubbled with 95% oxygen and 5% carbon dioxide, and maintained at 34° C. and pH 7.4. The sample was transferred to a perfusion chamber with a transparent bottom (Warner Instruments) within 15 minutes after euthanasia. The retina was placed on the microscope stage with the retinal nerve fiber layer side up. The speed of laminar flow was approximate 1 mL per min.
Imaging: Simultaneous second-harmonic generation microscopy and two-photon excitation fluorescence microscopy were performed to image the fresh retina. The excitation wavelength utilized short pulses from a mode-locked Ti: Sapphire laser source with a duration of 100 fs at 80-MHz repetition rate. The excitation wavelength was 785 nm, except for the experiments where two excitation wavelengths at 785 and 880 nm are compared. […]
Fluorescence was detected in the backward beam path, which included a set of spectral filters (Chroma Technology), and photomultiplier tube (PMT) detectors (Hamamatsu). […]

## COC(=O)Nc1nc2ccc(C(=O)c3cccs3)cc2[nH]1 [nocodazole]
  intensity of microtubule second-harmonic generation signal: significantly reduced
